Data published in ChEMBL document CHEMBL1152319, “Bromopyrrole alkaloids from marine sponges of the genus Agelas” (2009).
≈ marks a conversion by molar mass, not a printed value.

Tests used:
Format in all cases: functional
[1] = test system: Aspergillus niger; test: Antifungal activity against Aspergillus niger
[2] = test system: Staphylococcus aureus; test: Antibacterial activity against Staphylococcus aureus
[3] = test system: Bacillus subtilis; test: Antibacterial activity against Bacillus subtilis
[4] = test system: Micrococcus luteus; test: Antibacterial activity against Micrococcus luteus

An MIC [1] of 16.7 mg/L (≈ 39.6 µM) was found for O=C1NC(=O)/C(=C/[C@@H](O)CNC(=O)c2cc(Br)c(Br)[nH]2)N1 [MUKANADIN F] in this work.
An MIC [2] of 33.3 mg/L (≈ 43.4 µM), an MIC [3] of 33.3 mg/L (≈ 43.4 µM) and an MIC [4] of 33.3 mg/L (≈ 43.4 µM) were found for N=C1N[C@H]2N3C(=N)N[C@@H](O)[C@@]34[C@H]([C@H](CNC(=O)c3cc(Br)c[nH]3)[C@@H](CNC(=O)c3cc(Br)c(Br)[nH]3)[C@@H]4Cl)[C@@]2(O)N1 [NAGELAMIDE O] in this work.
